Results taken from PubChem BioAssay (NCI).
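Each compound was tested at five concentrations against cells in 96-well plates for 48 hours. Abbreviation: GI50, concentration required for 50% inhibition of growth. Definition used: TGI = concentration required for complete inhibition of growth.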

How the values were obtained:
Experiment in all cases: inhibition of tumour cell growth, NCI panel, 48 h
UO-31 renal = tested on: UO-31 renal
SN12C renal = tested on: SN12C renal
M14 melanoma = tested on: M14 melanoma
NCI/ADR-RES ovarian = tested on: NCI/ADR-RES ovarian
CCRF-CEM leukemia = tested on: CCRF-CEM leukemia
SK-OV-3 ovarian = tested on: SK-OV-3 ovarian
IGROV1 ovarian = tested on: IGROV1 ovarian
NCI-H23 lung = tested on: NCI-H23 lung
UACC-62 melanoma = tested on: UACC-62 melanoma
OVCAR-5 ovarian = tested on: OVCAR-5 ovarian
KM12 colon = tested on: KM12 colon
NCI-H226 lung = tested on: NCI-H226 lung
HCT-15 colon = tested on: HCT-15 colon
MDA-MB-435 = tested on: MDA-MB-435
TK-10 renal = tested on: TK-10 renal
SK-MEL-28 melanoma = tested on: SK-MEL-28 melanoma
UACC-257 melanoma = tested on: UACC-257 melanoma
DU-145 prostate = tested on: DU-145 prostate
RPMI-8226 leukemia = tested on: RPMI-8226 leukemia
CAKI-1 renal = tested on: CAKI-1 renal
OVCAR-8 ovarian = tested on: OVCAR-8 ovarian
HOP-62 NSCLC = tested on: HOP-62 NSCLC
COLO 205 colon = tested on: COLO 205 colon
SF-295 CNS = tested on: SF-295 CNS
SNB-75 CNS = tested on: SNB-75 CNS
SR leukemia = tested on: SR leukemia
HCT-116 colon = tested on: HCT-116 colon
SF-268 CNS = tested on: SF-268 CNS
MCF7 breast = tested on: MCF7 breast

Work on `CCN(Cc1c(Cl)cccc1Cl)c1ccc(CO)c(Cl)c1` yielded a GI50 (UO-31 renal) of 12.6 µM, a TGI (UO-31 renal) of 26.2 µM and a GI50 (SN12C renal) of 11.7 µM. The TGI (SN12C renal) was 24 µM, the GI50 (M14 melanoma) was 15.5 µM and the TGI (M14 melanoma) was 30.9 µM. It also gave a GI50 (NCI/ADR-RES ovarian) of 11.8 µM, a TGI (NCI/ADR-RES ovarian) of 27.3 µM and a GI50 (CCRF-CEM leukemia) of 15 µM. It also gave a TGI (CCRF-CEM leukemia) of 36.6 µM, a GI50 (SK-OV-3 ovarian) of 9.84 µM and a TGI (SK-OV-3 ovarian) of 22.3 µM. The GI50 (IGROV1 ovarian) was less than 0.0253 µM, the GI50 (NCI-H23 lung) was 10.8 µM and the TGI (NCI-H23 lung) was 26.2 µM. It also gave a GI50 (UACC-62 melanoma) of 0.0406 µM, a TGI (UACC-62 melanoma) of 0.741 µM and a GI50 (OVCAR-5 ovarian) of less than 0.0284 µM. For the same compound, the TGI (OVCAR-5 ovarian) was 0.24 µM, the GI50 (KM12 colon) was 13.7 µM and the TGI (KM12 colon) was 28.4 µM. For the same compound, the GI50 (NCI-H226 lung) was 0.0224 µM, the TGI (NCI-H226 lung) was 0.071 µM and the GI50 (HCT-15 colon) was 10.4 µM. The TGI (HCT-15 colon) was 23.5 µM, the GI50 (MDA-MB-435) was 9.22 µM and the TGI (MDA-MB-435) was 22.4 µM. It also gave a GI50 (TK-10 renal) of less than 0.0238 µM, a TGI (TK-10 renal) of 0.0592 µM and a GI50 (SK-MEL-28 melanoma) of 11.9 µM. For the same compound, the TGI (SK-MEL-28 melanoma) was 25.5 µM, the GI50 (UACC-257 melanoma) was less than 0.0392 µM and the TGI (UACC-257 melanoma) was 0.211 µM. It also gave a GI50 (DU-145 prostate) of 14.4 µM, a TGI (DU-145 prostate) of 27.9 µM and a GI50 (RPMI-8226 leukemia) of 1.12 µM. For the same compound, the TGI (RPMI-8226 leukemia) was 17.6 µM, the GI50 (CAKI-1 renal) was 4.23 µM and the TGI (CAKI-1 renal) was 21.9 µM. The GI50 (OVCAR-8 ovarian) was 13.7 µM, the TGI (OVCAR-8 ovarian) was 29.7 µM and the GI50 (HOP-62 NSCLC) was 2.15 µM. It also gave a TGI (HOP-62 NSCLC) of 21.2 µM, a GI50 (COLO 205 colon) of 2.41 µM and a TGI (COLO 205 colon) of 11.7 µM. For the same compound, the TGI (SF-295 CNS) was 1.37 µM, the GI50 (SNB-75 CNS) was 11 µM and the TGI (SNB-75 CNS) was 25.3 µM. The GI50 (SR leukemia) was 12.8 µM, the TGI (SR leukemia) was 36.7 µM and the GI50 (HCT-116 colon) was less than 0.0379 µM. For the same compound, the TGI (HCT-116 colon) was 11.3 µM, the GI50 (SF-268 CNS) was 15 µM and the TGI (SF-268 CNS) was 28.8 µM. For the same compound, the GI50 (MCF7 breast) was 0.146 µM and the TGI (MCF7 breast) was 13.4 µM.
